Experimental data taken from patent publication US20120016009A1, “Optimized Methods For Delivery Of DSRNA Targeting The PCSK9 Gene” (priority 2008, published 2012).
In the oligonucleotide strings, read from the 5' end, every base follows the letter of its sugar. An asterisk marks phosphorothioate; unmarked linkages are phosphodiester. Other units and linkages are bracketed, terminal groups are in braces. A string of capitals states the bases alone. d = 2'-deoxy (DNA); m = 2'-O-methyl; r = 2'-OH (RNA); {P} = phosphate; f = 2'-fluoro

Assays:
[1] = tested on: PCSK9 mRNA; assay: PCSK9 siRNA screening in HepG2 cells (lipofectamine 2000 transfection, PCSK9 mRNA by Quantigene, normalized to GAP-DH); format: cell-based, human
Procedure, shortened: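 HepG2 cells, grown in MEM with 10% fetal calf serum, antibiotics, non-essential amino acids and sodium pyruvate at 37° C. and 5% CO2, were plated at 2.0×10^4 cells/well in 96-well plates and transfected directly with siRNA using lipofectamine 2000. After 24 hours, cells were lysed and PCSK9 mRNA was measured by Quantigene and normalized to GAP-DH mRNA.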

[2] = tested on: PCSK9 mRNA; assay: PCSK9 silencing in primary cynomolgus monkey hepatocytes (dilution series from 30 nM, PCSK9/GAPDH mRNA); format: cell-based
Description: Primary cynomolgus monkey hepatocytes (cryopreserved) were obtained from In vitro Technologies, Inc. (Baltimore, Md., USA, cat No M00305) and cultured in InVitroGRO CP Medium (cat No Z99029) at 37° C. in an atmosphere with 5% CO2 in a humidified incubator.
For transfection with siRNA, primary cynomolgus monkey cells were seeded on Collagen coated plates (Fisher Scientific, cat. No. 08-774-5) at a density of 3.5×10^4 cells/well in 96-well plates and transfected directly. Transfection of siRNA (eight 2-fold dilution series starting from 30 nM) in duplicates was carried out with lipofectamine 2000 (Invitrogen GmbH, Karlsruhe, Germany, cat. No. 11668-019) as described by the manufacturer.
16 hours after transfection medium was changed to fresh InVitroGRO CP Medium with Torpedo Antibiotic Mix (In vitro Technologies, Inc, cat. No Z99000) added.
24 hours after medium change primary cynomolgus monkey cells were lysed and PCSK9 mRNA levels were quantified with the Quantigene Explore Kit (Genosprectra, Dumbarton Circle Fremont, USA, cat. No. QG-000-02) according to the protocol. PCSK9 mRNA levels were normalized to GAPDH mRNA. Normalized PCSK9/GAPDH ratios were then compared to PCSK9/GAPDH ratio of lipofectamine 2000 only control.

[3] = tested on: primary human blood monocytes (hPBMC); assay: IFN-alpha induction in primary human blood monocytes (hPBMC); format: cell-based; conditions: for IFN-α Induction: first word of the cell IFN-α/TNF-α Induction (Yes/No); for IFN-alpha induction: human primary blood monocytes
Description: (§1) siRNAs were tested for activation of the immune system in primary human blood monocytes (hPBMC). […] However, chemically modified versions of this sequence (AD-1a2, AD-1a3, AD-1a5, and AD-1a4) as well as AD-2a1 were negative for both IFN-alpha and TNF-alpha induction in these same assays (see Table 5, and FIGS. 13A and 13B). Thus chemical modifications are capable of dampening both IFN-alpha and TNF-alpha responses to siRNA molecules.

[4] = tested on: primary human blood monocytes (hPBMC); assay: TNF-alpha induction in primary human blood monocytes (hPBMC); format: cell-based; conditions: for TNF-alpha induction: human primary blood monocytes; for TNF-α Induction: second word of the cell IFN-α/TNF-α Induction (Yes/No)
Description: as §1

[5] = IFN-alpha activation in mice, siRNA formulated into liposomes; format: in vivo, mouse
[6] = tested on: PCSK9; assay: Total serum cholesterol in rats after LNP01 formulated PCSK9 siRNA (duration of action); format: in vivo, rat; conditions: versus PBS or control siRNA
Description: Rats were treated via tail vein injection with 5 mg/kg of LNP01-10792 (Formulated ALDP-10792). Blood was drawn at the indicated time points (see Table 3) and the amount of total cholesterol compared to PBS treated animals was measured by standard means. Total cholesterol levels decreased at day two ˜60% and returned to baseline by day 28.
To test if acute silencing of the PCSK9 transcript by a PCSK9 siRNA (and subsequent PCSK9 protein down-regulation), would result in acutely lower total cholesterol levels, siRNA molecule AD-1a2 (AD-10792) was formulated in an LNP01 lipidoid formulation. Liposomal formulated siRNA duplex AD-1a2 (LNP01-1a2) was injected via tail vein in low volumes (˜0.2 ml for mouse and ˜1.0 ml for rats) at different doses into C57/BL6 mice or Sprague Dawley rats.
Down-modulation of total cholesterol in rats has been historically difficult as cholesterol levels remain unchanged even at high doses of HMG-CoA reductase inhibitors. […] Rats were dosed with a single injection of LNP01-a2 via tail vein at 1, 2.5 and 5 mg/kg. Liver tissue and blood were harvested 72 hours post-injection. […] The mRNA silencing was associate with an acute ˜50-60% decrease of serum total cholesterol (FIGS. 10A and 10B) lasting 10 days, with a gradual return to pre-dose levels by ˜3 weeks (FIG. 10B).
(§2) Phosphorothioate modifications at the 3′ ends of both sense and antisense strands of a dsRNA can protect against exonucleases. 2′OMe and 2′F modifications in both the sense and antisense strands of a dsRNA can protect against endonucleases. AD-1a2 (see Table 5b) contains 2′OMe modifications on both the sense and antisense strands. Experiments were performed to determine if the inherent stability (as measured by siRNA stability in human serum) or the degree or type of chemical modification (2′OMe versus 2′F or a mixture) was related to either the observed rat efficacy or the duration of silencing effects. Stability of siRNAs with the same AD-1a2 core sequence, but containing different chemical modifications were created and tested for activity in vitro in primary Cyno monkey hepatocytes. A series of these molecules that maintained similar activity as measured by in vitro IC50 values for PCSK9 silencing (Table 5b), were then tested for their stability against exo and endonuclease cleavage in human serum. Each duplex was incubated in human serum at 37° C. (a time course), and subjected to HPLC analysis. […] Sequences AD-1a3, AD-1a5, and AD-1a4, which were more heavily modified (see chemical modifications in Table 5) all had T ½'s greater than 24 hours. […] Blood was collected from animals at various days post-dose, and total cholesterol concentrations were measured. […]

[7] = tested on: PCSK9 mRNA; assay: In vitro screening of modified dsRNAs targeted to PCSK9 (Table 2b; cell type not given); format: cell-based; conditions: 30 nM siRNA
Procedure, shortened: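 siRNA at 30 nM (single-dose screen) was transfected with lipofectamine 2000 into cells seeded at 2.0×10^4/well. After 24 h, cells were lysed and PCSK9 mRNA measured by Quantigene, normalized to GAPDH (n=8). Values are % remaining PCSK9 mRNA relative to cells given an unrelated control siRNA.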

[8] = siRNA stability in human serum at 37° C., HPLC analysis; format: in vitro ADME
Description: as §2

[9] = PCSK9 silencing in primary cynomolgus monkey hepatocytes, approximate IC50, read-out: Primary Cynomolgus Monkey Hepatocytes ~IC50
[10] = primary cynomolgus monkey hepatocytes, read-out: IC50 in Cynomolgous monkey Hepatocyte [nM]s

Row | Substance | IC50 [1] | Mean percent remaining mRNA transcript at siRNA concentration/in cell type 3 nM/HepG2 ([1]; 3 nM siRNA) | Mean percent remaining mRNA transcript at siRNA concentration/in cell type 30 nM/HepG2 ([1]; 30 nM siRNA) | IC50 [2, 9] | IC50 [2, 10] | activity in vitro in primary monkey hepatocytes [2] | IFN-α Induction [3] | IFN-alpha induction [3] | TNF-alpha induction [4] | TNF-α Induction [4] | IFN-alpha activation in mice [5] | decrease of total cholesterol day 2 post-dose [6] | Remaining mRNA in % of controls at siRNA conc. of 30 nM [7] | T ½ in pooled human serum [8] | IFN-alpha induction ([3]; listed as AD-1a2) | TNF-alpha induction ([4]; listed as AD-1a2)
1 | AD-9680: dsRNA targeting the PCSK9 gene at 3530-3548; sense SEQ ID NO:1227, antisense SEQ ID NO:1228 (sense mUmUmCmUrArGrAmCmCmUrGmUmUmUmUrGmCmUmUdT*dT; antisense rArArGmCrArArArAmCrArGrGrUrCmUrArGrArAdT*dT) | 0.1 nM | 22% | 12% | 0.07 to 0.2 nM | 0.1 nM | highly active | No/No | negative | negative | No/No | neither AD-1a2, nor AD-2a1 activated IFN-alpha |  |  |  |  | 
2 | AD-1a4: modified dsRNA, sense 2′ OMe, antisense 2′ F all Py, 5′ Phosphate; SEQ ID NO:1511/1512 (sense rGmCmCmUrGrGrArGmUmUmUrAmUmUmCrGrGrArAdT*dT; antisense {P}-fUfUfCfCrGrArAfUrArArAfCfUfCfCrArGrGfCdT*dT) |  |  |  | 0.07 to 0.2 nM |  |  | No/No | negative | negative | No/No |  | ~60% |  |  |  | 
3 | AD-1a5: modified dsRNA, sense 2′ F, antisense 2′ F all Py, 5′ Phosphate; SEQ ID NO:1513/1514 (sense GCCUGGAGUUUAUUCGGAATT; antisense {P}-fUfUfCfCrGrArAfUrArArAfCfUfCfCrArGrGfCdT*dT; sense: chemistry not given here; sense strand 2'-F modified, exact pattern not fully given) |  |  |  | 0.07 to 0.2 nM |  |  | No/No | negative | negative | No/No |  | ~60% |  |  |  | 
4 | AD-10792: 2′OMe modified dsRNA targeting PCSK9 at 1091-1109, SEQ ID NO:1305/1306 (chain 1 rGmCmCmUrGrGrArGmUmUmUrAmUmUmCrGrGrArAdT*dT; chain 2 rUrUrCrCrGrArAmUrArArArCrUrCmCrArGrGrCdT*dT) | 0.1 nM |  |  | 0.07 to 0.2 nM | 0.1 nM | active in vitro | No/No |  |  | No/No | neither AD-1a2, nor AD-2a1 activated IFN-alpha | ~60% | 15% | ~7 h | negative | negative
5 | AD-1a3: modified dsRNA, AD-1a2 core sequence, Alt 2′ F, 2′ OMe both strands; SEQ ID NO:1509/1510 (chain 1 GCCUGGAGUUUAUUCGGAATT; chain 2 {P}-mUfUmCfCmGfAmAfUmAfAmAfCmUfCmCfAmGfGmCdT*dT; chain 1: sugars from the 5' end fmfmfmfmfmfmfmfmfmfdd, backbone not given here) |  |  |  | 0.07 to 0.2 nM |  |  | No/No | negative | negative | No/No |  | ~60% |  |  |  | 
